Experimental data: ChEMBL document CHEMBL1201862, “PubChem BioAssay data set” (2004)
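Cells were grown in 96-well plates and exposed to each compound for 48 hours at five concentrations; endpoints were interpolated linearly between bracketing concentrations, or set to the highest concentration if not reached. At the GI50, growth is halved.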 Activity calls are given as the source filed them. Rule as the data show it: active = GI50 up to about 1.1 µM and inactive = higher.

Tests used:
Experiment in all cases: DTP human tumour cell line panel, 48 h
[1] = test system: DU-145
[2] = test system: U-251
[3] = test system: SW-620
[4] = test system: SR
[5] = test system: A549
[6] = test system: SF-295
[7] = test system: HOP-92
[8] = test system: SK-MEL-5
[9] = test system: KM12
[10] = test system: Malme-3M
[11] = test system: OVCAR-8
[12] = test system: SF-539
[13] = test system: CCRF-CEM
[14] = test system: M14
[15] = test system: NCI-H460
[16] = test system: SNB-19
[17] = test system: OVCAR-4
[18] = test system: MDA-N
[19] = test system: UACC-257
[20] = test system: RPMI-8226

## CSCCCNC(=O)c1csc([C@@H](CSC)NC(=O)CCNC(=O)[C@@H](NC(=O)OCC(Br)(Br)Br)C(C)O)n1 (stereo partly specified)
[1]
  GI50: > 100 µM (inactive)
[2]
  GI50: > 100 µM (inactive)
[3]
  GI50: > 100 µM (inactive)
[4]
  GI50: > 100 µM (inactive)
[5]
  GI50: > 100 µM (inactive)
[6]
  GI50: > 100 µM (inactive)
[7]
  GI50: > 100 µM (inactive)
[8]
  GI50: > 100 µM (inactive)
[9]
  GI50: > 100 µM (inactive)
[10]
  GI50: > 100 µM (inactive)
[11]
  GI50: > 100 µM (inactive)
[12]
  GI50: > 100 µM (inactive)
[13]
  GI50: > 100 µM (inactive)
[14]
  GI50: > 100 µM (inactive)
[15]
  GI50: > 100 µM (inactive)
[16]
  GI50: > 100 µM (inactive)
[17]
  GI50: > 100 µM (inactive)
[18]
  GI50: > 100 µM (inactive)
[19]
  GI50: > 100 µM (inactive)

## c1ccc(-c2nnn(CCN3CCCCC3)n2)cc1
[1]
  GI50: > 100 µM (inactive)
[2]
  GI50: > 100 µM (inactive)
[3]
  GI50: > 100 µM (inactive)
[4]
  GI50: > 100 µM (inactive)
[5]
  GI50: > 100 µM (inactive)
[6]
  GI50: > 100 µM (inactive)
[20]
  GI50: > 100 µM (inactive)
[7]
  GI50: > 100 µM (inactive)
[8]
  GI50: > 100 µM (inactive)
[9]
  GI50: > 100 µM (inactive)
[10]
  GI50: > 100 µM (inactive)
[11]
  GI50: > 100 µM (inactive)
[13]
  GI50: > 100 µM (inactive)
[14]
  GI50: > 100 µM (inactive)
[15]
  GI50: > 100 µM (inactive)
[16]
  GI50: > 100 µM (inactive)
[17]
  GI50: > 100 µM (inactive)
[18]
  GI50: > 100 µM (inactive)
[19]
  GI50: > 100 µM (inactive)

## CN(C)c1ccc(/C=C2\C[C@H]3[C@@H]4CC=C5C[C@@H](N6CCCC6)CC[C@]5(C)[C@H]4CC[C@]3(C)[C@H]2O)cc1
[1]
  GI50: 3.05 µM (inactive)
[2]
  GI50: 0.925 µM (active)
[3]
  GI50: 1.3 µM (inactive)
[4]
  GI50: 0.773 µM (active)
[5]
  GI50: 1.36 µM (inactive)
[6]
  GI50: 1.13 µM (inactive)
[20]
  GI50: 0.973 µM (active)
[7]
  GI50: 2.47 µM (inactive)
[8]
  GI50: 0.923 µM (active)
[9]
  GI50: 2.24 µM (inactive)
[10]
  GI50: 0.938 µM (active)
[11]
  GI50: 0.769 µM (active)
[12]
  GI50: 3.78 µM (inactive)
[14]
  GI50: 0.773 µM (active)
[15]
  GI50: 1.48 µM (inactive)
[16]
  GI50: 1.5 µM (inactive)
[17]
  GI50: 0.796 µM (active)
[18]
  GI50: 1.01 µM (active)
[19]
  GI50: 0.957 µM (active)

## Cc1cc(C)nc(NS(=O)(=O)c2ccc(Nc3c4ccccc4nc4c(C(=O)NCCO)cccc34)cc2)n1
[1]
  GI50: 40.8 µM (inactive)
[2]
  GI50: 17.1 µM (inactive)
[3]
  GI50: 16.7 µM (inactive)
[4]
  GI50: 10.7 µM (inactive)
[5]
  GI50: 29.6 µM (inactive)
[6]
  GI50: 11.8 µM (inactive)
[20]
  GI50: 10.3 µM (inactive)
[7]
  GI50: > 100 µM (inactive)
[8]
  GI50: 17.1 µM (inactive)
[9]
  GI50: 10.9 µM (inactive)
[10]
  GI50: 14.8 µM (inactive)
[11]
  GI50: 8.24 µM (inactive)
[13]
  GI50: 10.3 µM (inactive)
[14]
  GI50: 31.1 µM (inactive)
[15]
  GI50: 14.1 µM (inactive)
[16]
  GI50: 16.6 µM (inactive)
[17]
  GI50: 33.3 µM (inactive)
[18]
  GI50: 18.1 µM (inactive)
[19]
  GI50: > 10 µM (inactive)

## Clc1sc(Cl)c2c1[C@@H](Cl)C[C@@H]2Br
[1]
  GI50: > 100 µM (inactive)
[2]
  GI50: > 100 µM (inactive)
[3]
  GI50: 45.6 µM (inactive)
[4]
  GI50: 18.8 µM (inactive)
[5]
  GI50: 83.8 µM (inactive)
[6]
  GI50: > 100 µM (inactive)
[7]
  GI50: 37.4 µM (inactive)
[8]
  GI50: > 100 µM (inactive)
[9]
  GI50: 90.6 µM (inactive)
[10]
  GI50: 22.8 µM (inactive)
[11]
  GI50: > 100 µM (inactive)
[13]
  GI50: 33.3 µM (inactive)
[14]
  GI50: > 100 µM (inactive)
[15]
  GI50: 71.1 µM (inactive)
[16]
  GI50: > 100 µM (inactive)
[17]
  GI50: > 100 µM (inactive)
[18]
  GI50: 84.3 µM (inactive)
[19]
  GI50: 70.1 µM (inactive)

## c1ccc2c(c1)SCCCSCCSCCCS2
[1]
  GI50: > 100 µM (inactive)
[2]
  GI50: > 100 µM (inactive)
[3]
  GI50: > 100 µM (inactive)
[4]
  GI50: > 100 µM (inactive)
[5]
  GI50: > 100 µM (inactive)
[6]
  GI50: > 100 µM (inactive)
[7]
  GI50: 48.9 µM (inactive)
[8]
  GI50: > 100 µM (inactive)
[9]
  GI50: > 100 µM (inactive)
[11]
  GI50: > 100 µM (inactive)
[12]
  GI50: > 100 µM (inactive)
[13]
  GI50: > 100 µM (inactive)
[14]
  GI50: > 100 µM (inactive)
[15]
  GI50: > 100 µM (inactive)
[16]
  GI50: > 100 µM (inactive)
[17]
  GI50: 93.5 µM (inactive)
[18]
  GI50: > 100 µM (inactive)
[19]
  GI50: > 100 µM (inactive)

## CC(=O)C(C)C(=O)N1C(=O)N(C)C2(C)N(C)C(=O)NC12C (stereo unspecified)
[1]
  GI50: > 100 µM (inactive)
[2]
  GI50: > 100 µM (inactive)
[4]
  GI50: > 100 µM (inactive)
[5]
  GI50: > 100 µM (inactive)
[6]
  GI50: > 100 µM (inactive)
[20]
  GI50: > 100 µM (inactive)
[7]
  GI50: > 100 µM (inactive)
[8]
  GI50: > 100 µM (inactive)
[9]
  GI50: > 100 µM (inactive)
[10]
  GI50: > 100 µM (inactive)
[12]
  GI50: > 100 µM (inactive)
[14]
  GI50: > 100 µM (inactive)
[15]
  GI50: > 100 µM (inactive)
[16]
  GI50: > 100 µM (inactive)
[17]
  GI50: > 100 µM (inactive)
[18]
  GI50: > 100 µM (inactive)

## CSc1c(C#N)c(N)n(-c2ccc(Cl)cc2)c(=O)c1C#N
[1]
  GI50: > 100 µM (inactive)
[2]
  GI50: > 100 µM (inactive)
[3]
  GI50: > 100 µM (inactive)
[4]
  GI50: 42.8 µM (inactive)
[5]
  GI50: > 100 µM (inactive)
[20]
  GI50: > 100 µM (inactive)
[7]
  GI50: 21 µM (inactive)
[8]
  GI50: > 100 µM (inactive)
[9]
  GI50: > 100 µM (inactive)
[10]
  GI50: > 100 µM (inactive)
[11]
  GI50: 67.8 µM (inactive)
[12]
  GI50: > 100 µM (inactive)
[14]
  GI50: > 100 µM (inactive)
[15]
  GI50: > 100 µM (inactive)
[16]
  GI50: > 100 µM (inactive)
[17]
  GI50: > 100 µM (inactive)
[18]
  GI50: > 100 µM (inactive)
[19]
  GI50: > 100 µM (inactive)
